Assay results: ChEMBL document CHEMBL1130867, “Ascorbic acid-based inhibitors of alpha-amylases” (Bioorg Med Chem Lett, 1998)

Columns and labels:
Conditions in all cases: concentration not given here
[1] = test system: Alpha-amylase (Hordeum vulgare); assay: Inhibition of malt alpha-amylase; set-up: concentration or dose not given beside the values
Bacteria = assay: Inhibition of Alpha-amylase; set-up: concentration or dose not given beside the values
Fungi = assay: Inhibition of fungal alpha-amylase; set-up: concentration or dose not given beside the values
[2] = biological target: T1, Pancreatic alpha-amylase (Homo sapiens) (UniProt P04746); assay: Inhibition of pancreatic alpha-amylase; set-up: concentration or dose not given beside the values
T1 sequence (whole entry): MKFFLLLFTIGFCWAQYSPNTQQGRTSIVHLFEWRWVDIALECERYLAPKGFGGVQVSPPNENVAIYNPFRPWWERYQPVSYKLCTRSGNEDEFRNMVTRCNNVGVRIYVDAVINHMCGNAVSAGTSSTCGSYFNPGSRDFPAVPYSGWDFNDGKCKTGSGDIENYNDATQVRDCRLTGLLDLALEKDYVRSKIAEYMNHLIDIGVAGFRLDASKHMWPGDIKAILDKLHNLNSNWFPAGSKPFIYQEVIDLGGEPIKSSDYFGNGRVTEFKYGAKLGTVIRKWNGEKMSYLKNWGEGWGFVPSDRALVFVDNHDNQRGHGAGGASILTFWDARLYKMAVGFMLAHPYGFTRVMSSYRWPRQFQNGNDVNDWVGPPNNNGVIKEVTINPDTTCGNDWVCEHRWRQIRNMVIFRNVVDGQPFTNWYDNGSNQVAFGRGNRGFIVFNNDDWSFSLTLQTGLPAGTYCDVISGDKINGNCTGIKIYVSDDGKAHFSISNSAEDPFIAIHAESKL

[3] = biological target: T2, Alpha-amylase 1A (Homo sapiens) (UniProt P0DUB6); assay: Inhibition of salivary alpha-amylase
T2 sequence (whole entry): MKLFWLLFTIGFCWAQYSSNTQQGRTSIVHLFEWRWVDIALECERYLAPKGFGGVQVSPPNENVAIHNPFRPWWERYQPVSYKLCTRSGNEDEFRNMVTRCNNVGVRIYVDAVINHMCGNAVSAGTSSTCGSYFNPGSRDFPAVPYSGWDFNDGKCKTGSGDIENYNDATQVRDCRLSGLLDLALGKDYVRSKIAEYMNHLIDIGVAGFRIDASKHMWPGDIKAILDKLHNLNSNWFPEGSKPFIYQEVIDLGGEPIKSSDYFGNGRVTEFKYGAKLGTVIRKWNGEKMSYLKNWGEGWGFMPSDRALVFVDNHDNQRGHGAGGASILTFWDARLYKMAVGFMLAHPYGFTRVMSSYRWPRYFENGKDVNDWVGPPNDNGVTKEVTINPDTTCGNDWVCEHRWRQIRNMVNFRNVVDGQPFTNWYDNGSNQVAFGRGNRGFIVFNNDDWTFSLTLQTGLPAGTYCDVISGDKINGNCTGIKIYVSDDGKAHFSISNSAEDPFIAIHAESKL

Structure (SMILES) | inhibition [1] [%] | inhibition (Bacteria) [%] | inhibition (Fungi) [%] | inhibition [2] [%] | inhibition [3] [%]
COC1=C(OC(C)=O)C(C2COC(C)(C)O2)OC1=O (centres undefined) | 9 | – | – | – | –
COC1=C(OC)C(C2COC(C)(C)O2)OC1=O (centres undefined) | 2 | – | – | – | –
COC1=C(OC)C(C(O)CO)OC1=O (centres undefined) | 4 | – | – | – | –
COC1=C(O)C(=O)OC1C1COC(C)(C)O1 (centres undefined) | 29 | 8 | 17 | 0 | –
CCCCCCCCCCCCCCCC(=O)OC[C@H](O)[C@H]1OC(=O)C(O)=C1O | – | 84 | 70 | 88 | 69
COC1=C(OC)C(C(COC(C)=O)OC(C)=O)OC1=O (centres undefined) | 0 | – | – | – | –
O=C1O[C@H]([C@@H](O)CO)C(O)=C1O (stereo in doubt; 1b) | – | 99 | 98 | 100 | 100
CC1(C)OCC(C2OC(=O)C(O)=C2O)O1 (stereo in doubt; 2b) | 93 | 93 | 91 | 99 | 98
CC1(C)OCC(C2OC(=O)C(O)=C2O)O1 (stereo in doubt; 2a) | 90 | 98 | 94 | 99 | 88
COC1=C(OC)C(C(O)COC(C)=O)OC1=O (centres undefined) | 3 | – | – | – | –
CC(=O)OCC(OC(C)=O)C1OC(O)=C(O)C1=O (centres undefined) | 89 | 92 | 91 | 99 | –
CCCC(=O)OCC(O)C1OC(=O)C(OC)=C1OC (centres undefined) | 10 | – | – | – | –
CCC(=O)OCC(O)C1OC(=O)C(OC)=C1OC (centres undefined) | 7 | – | – | – | –
COC1=C(O)C(=O)OC1C(O)CO (centres undefined) | 9 | – | – | – | –
